Reference: patent US9896441B2 (Lycera Corporation, priority 2014, dated 2018)
pEC50: −log10 of the molar value.

What was measured:
[1] = biological target: T1, RORγ-LBD (Homo sapiens, UniProt P51449); test: RORγ-Ligand Binding Domain (LBD) TR-FRET Assay; format: biochemical; conditions: RORγ-LBD TR-FRET
T1 construct: made in house; host or cells: SF9 cells (baculovirus); used as diluted lysate
T1 sequence (P51449 269-508 limits assumed): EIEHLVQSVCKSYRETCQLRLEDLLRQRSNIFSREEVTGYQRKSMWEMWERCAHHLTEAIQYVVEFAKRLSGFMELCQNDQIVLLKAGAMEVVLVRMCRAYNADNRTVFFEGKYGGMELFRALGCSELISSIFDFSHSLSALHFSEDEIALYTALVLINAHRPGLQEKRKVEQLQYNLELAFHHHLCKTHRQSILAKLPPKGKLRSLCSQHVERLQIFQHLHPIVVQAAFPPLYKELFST
Procedure, shortened: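 Lysate from SF9 cells expressing His-RORγ-LBD is diluted to about 3 nM final in 50 mM Tris pH 7.0 assay buffer. A biotin-tagged SRC1 LXXLL peptide goes in at 200 nM final, plus ursolic acid at 2 μM final. Test compounds carry 1% DMSO final; signal read by TR-FRET.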

[2] = biological target: T2, Gal4-RORγ-LBD (Homo sapiens, UniProt P51449); test: Gal4-RORγ Luciferase Reporter Assay in HEK-293T Cells; format: cell-based; conditions: HEK-293 cells, luciferase reporter, with ursolic acid
T2 construct: expressed in transfected cells
T2 sequence (P51449 269-508 limits assumed): T1 sequence (P51449 269-508 limits assumed)
Procedure, shortened: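 Max Response was taken as the upper plateau of a 4-parameter logistic fit of luciferase signal, normalized to 100 for wells without ursolic acid or compound. Transiently Gal4-RORγ-LBD/Gal4-luc transfected HEK-293 cells carrying […] ursolic acid were incubated with test compounds (0.2% DMSO) overnight at 37 °C and read with One-Glo.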

| pEC50 [1] | pEC50 [2] | Compound |
| --- | --- | --- |
| > 6.30 | 5.30 to 6.30 | C/C(=C\c1ccc2c(c1)N(S(=O)(=O)c1ccc(F)c(C(F)(F)F)c1)C[C@H](CCC(=O)O)O2)c1c(F)cccc1Cl [Example 86A, (S,E)-3-(6-(2-(2-chloro-6-fluorophenyl)prop-1-en-1-yl)-4-((4-fluoro-3-(trifluoromethyl)-phenyl)sulfonyl)-3,4-dihydro-2H-benzo[b][1,4]oxazin-2-yl)-propanoic acid] |
| > 6.30 | 5.30 to 6.30 | COC(=O)CC[C@H]1CN(S(=O)(=O)c2cccc(C(F)(F)F)c2)c2cc(/C=C(\C)c3ccccc3)ccc2O1 [Example 86AB, (S,E)-methyl 3-(6-(2-phenylprop-1-en-1-yl)-4-((3-(trifluoromethyl)-phenyl)sulfonyl)-3,4-dihydro-2H-benzo[b][1,4]oxazin-2-yl)propanoate] |
| > 6.30 | < 5.00 | C/C(=C\c1ccc2c(c1)N(S(=O)(=O)c1cccc(C(F)(F)F)c1)C[C@H](CCC(=O)O)O2)c1c(C)noc1C [Example 86AC, (S,E)-3-(6-(2-(3,5-dimethylisoxazol-4-yl)prop-1-en-1-yl)-4-((3-(trifluoromethyl)phenyl)sulfonyl)-3,4-dihydro-2H-benzo[b][1,4]oxazin-2-yl)propanoic acid] |
| > 6.30 | 5.30 to 6.30 | COC(=O)CC[C@H]1CN(S(=O)(=O)c2cccc(C(F)(F)F)c2)c2cc(/C=C(\C)c3c(C)noc3C)ccc2O1 [Example 86AD, (S,E)-methyl 3-(6-(2-(3,5-dimethylisoxazol-4-yl)prop-1-en-1-yl)-4-((3-(trifluoromethyl)-phenyl)sulfonyl)-3,4-dihydro-2H-benzo[b][1,4]oxazin-2-yl)-propanoate] |
| > 6.30 | 5.30 to 6.30 | COC(=O)CC[C@H]1CN(S(=O)(=O)c2cccc(C(F)(F)F)c2)c2cc(/C=C(\C)c3c(Cl)cccc3Cl)ccc2O1 [Example 86AF, (S,E)-methyl 3-(6-(2-(2,6-dichlorophenyl)prop-1-en-1-yl)-4-((3-(trifluoromethyl)phenyl)-sulfonyl)-3,4-dihydro-2H-benzo[b][1,4]oxazin-2-yl)propanoate] |
| > 6.30 | > 6.30 | C/C(=C\c1ccc2c(c1)N(S(=O)(=O)c1cccc(C(F)(F)F)c1)C[C@H](CCC(=O)O)O2)c1ccccc1C(F)(F)F [Example 86AG, (S,E)-3-(6-(2-(2-(trifluoromethyl)-phenyl)prop-1-en-1-yl)-4-((3-(trifluoromethyl)phenyl)sulfonyl)-3,4-dihydro-2H-benzo[b][1,4]-oxazin-2-yl)propanoic acid] |
| > 6.30 | 5.30 to 6.30 | COC(=O)CC[C@H]1CN(S(=O)(=O)c2cccc(C(F)(F)F)c2)c2cc(/C=C(\C)c3ccccc3C(F)(F)F)ccc2O1 [Example 86AH, (S,E)-methyl 3-(6-(2-(2-(trifluoromethyl)phenyl)prop-1-en-1-yl)-4-((3-(trifluoromethyl)phenyl)-sulfonyl)-3,4-dihydro-2H-benzo[b][1,4]oxazin-2-yl)propanoate] |
| > 6.30 | 5.30 to 6.30 | COC(=O)CC[C@H]1CN(S(=O)(=O)c2cccc(C(F)(F)F)c2)c2cc(/C=C(\C)c3ccccc3C)ccc2O1 [Example 86AL, (S,E)-methyl 3-(6-(2-(o-tolyl)prop-1-en-1-yl)-4-((3-(trifluoromethyl)-phenyl)sulfonyl)-3,4-dihydro-2H-benzo[b][1,4]oxazin-2-yl)propanoate] |
| > 6.30 | 5.30 to 6.30 | C/C(=C\c1ccc2c(c1)N(S(=O)(=O)c1cccc(C(F)(F)F)c1C)C[C@H](CCC(=O)O)O2)c1c(F)cccc1Cl [Example 86AM, (S,E)-3-(6-(2-(2-chloro-6-fluorophenyl)prop-1-en-1-yl)-4-((2-methyl-3-(trifluoromethyl)-phenyl)sulfonyl)-3,4-dihydro-2H-benzo[i,4]oxazin-2-yl)propanoic acid] |
| > 6.30 | 5.30 to 6.30 | COC(=O)CC[C@H]1CN(S(=O)(=O)c2cccc(C(F)(F)F)c2C)c2cc(/C=C(\C)c3c(F)cccc3Cl)ccc2O1 [Example 86AN, (S,E)-methyl 3-(6-(2-(2-chloro-6-fluorophenyl)prop-1-en-1-yl)-4-((2-methyl-3-(trifluoromethyl)-phenyl)sulfonyl)-3,4-dihydro-2H-benzo[b][1,4]oxazin-2-yl)propanoate] |
| > 6.30 | > 6.30 | C/C(=C\c1ccc2c(c1)N(S(=O)(=O)c1ccc(C)c(C(F)(F)F)c1)C[C@H](CCC(=O)O)O2)c1c(F)cccc1Cl [Example 86AO, (S,E)-3-(6-(2-(2-chloro-6-fluorophenyl)prop-1-en-1-yl)-4-((4-methyl-3-(trifluoromethyl)-phenyl)sulfonyl)-3,4-dihydro-2H-benzo[b][1,4]oxazin-2-yl)propanoic acid] |
| > 6.30 | 5.30 to 6.30 | COC(=O)CC[C@H]1CN(S(=O)(=O)c2cc(F)cc(C(F)(F)F)c2)c2cc(/C=C(\C)c3c(F)cccc3Cl)ccc2O1 [Example 86AR, (S,E)-methyl 3-(6-(2-(2-chloro-6-fluorophenyl)prop-1-en-1-yl)-4-((3-fluoro-5-(trifluoromethyl)-phenyl)sulfonyl)-3,4-dihydro-2H-benzo[b][1,4]oxazin-2-yl)propanoate] |
| > 6.30 | > 6.30 | C/C(=C\c1ccc2c(c1)N(S(=O)(=O)c1ccc(F)c(OC(F)F)c1)C[C@H](CCC(=O)O)O2)c1c(F)cccc1Cl [Example 86AS, (S,E)-3-(6-(2-(2-chloro-6-fluorophenyl)prop-1-en-1-yl)-4-((3-(difluoromethoxy)-4-fluorophenyl)sulfonyl)-3,4-dihydro-2H-benzo[b][1,4]oxazin-2-yl)propanoic acid] |
| > 6.30 | > 6.30 | COC(=O)CC[C@H]1CN(S(=O)(=O)c2ccc(F)c(OC(F)F)c2)c2cc(/C=C(\C)c3c(F)cccc3Cl)ccc2O1 [Example 86AT, (S,E)-methyl 3-(6-(2-(2-chloro-6-fluorophenyl)prop-1-en-1-yl)-4-((3-(difluoromethoxy)-4-fluorophenyl)sulfonyl)-3,4-dihydro-2H-benzo[b][1,4]oxazin-2-yl)propanoate] |
| > 6.30 | > 6.30 | CCOc1nn(CC)cc1S(=O)(=O)N1C[C@H](CCC(=O)O)Oc2ccc(/C=C(\C)c3c(Cl)cccc3C(F)(F)F)cc21 [Example 86AW, (S,E)-3-(6-(2-(2-chloro-6-(trifluoromethyl)phenyl)prop-1-en-1-yl)-4-((3-ethoxy-1-ethyl-1H-pyrazol-4-yl)sulfonyl)-3,4-dihydro-2H-benzo[b][1,4]oxazin-2-yl)propanoic acid] |
| > 6.30 | 5.30 to 6.30 | CCOc1nn(CC)cc1S(=O)(=O)N1C[C@H](CCC(=O)OC)Oc2ccc(/C=C(\C)c3c(Cl)cccc3C(F)(F)F)cc21 [Example 86AX, methyl (S,E)-3-(6-(2-(2-chloro-6-(trifluoromethyl)phenyl)prop-1-en-1-yl)-4-((3-ethoxy-1-ethyl-1H-pyrazol-4-yl)sulfonyl)-3,4-dihydro-2H-benzo[b][1,4]oxazin-2-yl)propanoate] |
| > 6.30 | > 6.30 | C/C(=C\c1ccc2c(c1)N(S(=O)(=O)c1cn(C(C)C)nc1OCCO)C[C@H](CCC(=O)O)O2)c1c(F)cccc1Cl [Example 86AY, (S,E)-3-(6-(2-(2-chloro-6-fluorophenyl)prop-1-en-1-yl)-4-((3-(2-hydroxyethoxy)-1-isopropyl-1H-pyrazol-4-yl)sulfonyl)-3,4-dihydro-2H-benzo[b][1,4]oxazin-2-yl)propanoic acid] |
| > 6.30 | 5.30 to 6.30 | C/C(=C\c1ccc2c(c1)N(S(=O)(=O)c1cn(CC(F)F)nc1OCCO)C[C@H](CCC(=O)O)O2)c1c(F)cccc1Cl [Example 86AZ, (S)-3-(6-(2-(2-chloro-6-fluorophenyl)prop-1-en-1-yl)-4-((1-(2,2-difluoroethyl)-3-(2-hydroxyethoxy)-1H-pyrazol-4-yl)sulfonyl)-3,4-dihydro-2H-benzo[b][1,4]oxazin-2-yl)propanoic acid] |
| > 6.30 | > 6.30 | COC(=O)CC[C@H]1CN(S(=O)(=O)c2ccc(F)c(C(F)(F)F)c2)c2cc(/C=C(\C)c3c(F)cccc3Cl)ccc2O1 [Example 86B, (S,E)-methyl 3-(6-(2-(2-chloro-6-fluorophenyl)prop-1-en-1-yl)-4-((4-fluoro-3-(trifluoromethyl)-phenyl)sulfonyl)-3,4-dihydro-2H-benzo[b][1,4]oxazin-2-yl)propanoate] |
| > 6.30 | > 6.30 | C/C(=C\c1ccc2c(c1)N(S(=O)(=O)c1ccc(F)c(C3CC3)c1)C[C@H](CCC(=O)O)O2)c1c(F)cccc1Cl [Example 86C, (S,E)-3-(6-(2-(2-chloro-6-fluorophenyl)prop-1-en-1-yl)-4-((3-cyclopropyl-4-fluorophenyl)-sulfonyl)-3,4-dihydro-2H-benzo[b][1,4]oxazin-2-yl)-propanoic acid] |
| > 6.30 | > 6.30 | COC(=O)CC[C@H]1CN(S(=O)(=O)c2ccc(F)c(C3CC3)c2)c2cc(/C=C(\C)c3c(F)cccc3Cl)ccc2O1 [Example 86D, (S,E)-methyl 3-(6-(2-(2-chloro-6-fluorophenyl)prop-1-en-1-yl)-4-((3-cyclopropyl-4-fluorophenyl)-sulfonyl)-3,4-dihydro-2H-benzo[b][1,4]oxazin-2-yl)propanoate] |
